Measured values reported in patent US6888033B1, “Anti-viral compounds” (Cytoclonal Pharmaceutics, Inc., priority 1996, dated 2005).
Where two headings read alike, the source gives them in different places.

What was measured:
[1] = test system: human rhinovirus 14, strain 1059; assay: Inhibition of virus in whole-cell assay (inhibition of cytopathic effect); assay type: cell-based
Method: H1-HeLa cells, obtained from ATCC (F-13824, 1958-CRL) were cultured in MEM (Minimum Essential Medium) supplemented with 10% heat-inactivated fetal calf serum (FCS) by incubation at 37° C, 5% CO2 (Biological Industry, Kibbuts Beit HaEmek, Israel).
96 well plates were seeded to 90% confluency. After 12-24 hrs of incubation, the cell's monolayer was washed with phosphate-buffered saline (PBS), and the cells were subsequently infected with ten-fold dilutions in PBS (log10) of human rhinovirus 14, strain 1059, obtained from ATCC.
For each concentration of compound, three rows of wells containing various dilutions of virus were used. After 1 h of incubation at room temperature, medium containing 3% FCS and various concentrations of compound to be tested was placed in the well. After 2 days incubation at 34° C, 5% CO2, the cells were fixed by 10% formaldehyde and stained with methylene blue to determine cell viability. The cytopathic effect of non-viable cells was arbitrarily set to 100% for the untreated viral infection, so that the effect of each compound on cell viability was determined according to this baseline. Each experiment was performed 5 times for each compound, and the inhibition of cytopathic effect (ICE50) for inhibition of viral activity was calculated. […] ICE50 refers to the concentration in which 50% of the cells remain viable after viral infection.

[2] = target: T1, Recombinant HRV-1A 3C protease (Human rhinovirus 1A, UniProt P23008); assay: HRV 3C Protease Inhibition Assay - HPLC Method; assay type: biochemical; details: Km value of 1.9 mM, overnight incubation
T1 construct: HRV-1A 3C protease was produced in E. Coli [BL21(DE3)pLysS] containing the protease gene; made in house; host or cells: E. coli BL21(DE3)pLysS, T7 expression vector
T1 sequence (P23008 1515-1697): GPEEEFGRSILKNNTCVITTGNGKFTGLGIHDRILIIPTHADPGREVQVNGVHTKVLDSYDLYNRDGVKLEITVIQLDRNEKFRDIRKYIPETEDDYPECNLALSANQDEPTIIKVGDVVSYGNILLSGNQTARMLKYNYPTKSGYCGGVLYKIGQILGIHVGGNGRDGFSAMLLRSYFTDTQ

H1-HeLa cells = assay: 50% toxic dose (TD50); assay type: cell-based
papain = target: T2, papain (Carica papaya, UniProt P00784); assay: Papain assay (specificity); assay type: biochemical; details: all DIF1 concentrations tested
T2 sequence (P00784 134-345): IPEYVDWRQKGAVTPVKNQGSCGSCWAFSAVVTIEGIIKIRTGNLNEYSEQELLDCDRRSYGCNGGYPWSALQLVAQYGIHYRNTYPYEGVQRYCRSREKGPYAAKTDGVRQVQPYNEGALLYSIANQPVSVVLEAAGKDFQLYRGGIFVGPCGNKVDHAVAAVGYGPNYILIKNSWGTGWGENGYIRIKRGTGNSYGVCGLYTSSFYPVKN
Method: (§1) The specificity of DIF1 as an enzyme inhibitor was tested using cleavage assays for a number of other enzymes, including elastase, cathepsin B, chymotripsin, papain and ficin A. Elastase was particularly important because it is present in […], so that inhibition of its activity could potentially be highly toxic. […] The experimental method was as follows.
(§2) Papain and Ficin were incubated for one hour in an activation solution containing 0.1 M KPi buffer pH 7.0. 0.5 mM cysteine, 20 mM EDTA and 65 μg enzyme. The assays were carried out by adding 20 μl aliquots from the activation mix to 0.1 M KPi buffer pH 7.0, containing 12.5 nM N-CBZ-p-Nitrophenyl ester. The reaction was monitored by spectrphotometry at 405 nm.

HRV 3C protease = target: T3, HRV 3C protease (Human rhinovirus 1A, UniProt P23008); assay: Inhibition of 3C protease cleavage activity, peptide cleavage assay with reverse phase HPLC; assay type: biochemical
T3 construct: 2.5 μg of HRV 3C protease
T3 sequence (P23008 1515-1697): as the sequence (P23008 1515-1697) above
Method: Next, the inhibition of 3C protease activity was measured by using a cleavage assay. […] Specific cleavage of this peptide [(N-Ac)Arg-Ala-Glu-Leu-Gln-Gly-Pro-[…]-Asp-Glu] (SEQ ID NO:2) by HRV 3C provided two pentapeptides. In a typical experiment 80 μg of peptide, dissolved in 100 mM TRIS (pH 8) and 100 mM NaCl, was incubated at 35° C. with 2.5 μg of HRV 3C protease with and without DIF1, to give a total volume of 30 μl. In both cases 3C was suspended in a buffered solution (40 mM Tris-HCL, pH 8.0, 100 mM, NaCl, 1 mM DTT, 1 mM EDTA), 2.5 mg of DIF1 (dissolved in 1 ml of ethanol) was used, corresponding to a concentration of 270 μM. Inhibitory effects due to the organic solvent were not observed; nevertheless, 10 μl of ethanol were added to the control. Aliquots were drawn at short intervals (within ca. 40 min.) and quenched with an equal volume of 1% TFA in Methanol (HPLC grade). […]
The degree of 3C protease inhibition by DIF1 was found by integration of peak areas under the 280 nm absorption curve. The degree of cleavage was calculated as the ratio of peak areas corresponding to peptide alone and peptide plus GPYDE (SEQ ID NO:3) product. Quantification was based on the initial, linear portion of the absorption curve, which represents less than 20% cleavage.

chymotripsin = chymotripsin (Bos taurus, UniProt P00766); assay: Chymotripsin assay (specificity); assay type: biochemical; details: all DIF1 concentrations tested
Method: as §1
(§3) The cleavage activity for cathepsin B was assayed according to the method of Bajowski an Frankfater (Anal. Biochem. 68:119 (1975)). Chymotripsin was assayed in 0.1M KPi buffer pH 7.0 containing 0.04 μg/ml enzyme and 200 μM N-benzyl-L-tryosine ethyl ester (from a 20 mM stock in dimethyl sulfoxide). The reaction was monitored by spectrophotometry at 256 nm.

ficin A = assay: Ficin assay (specificity); assay type: biochemical; details: all DIF1 concentrations tested
Method: as §1, §2

elastase = assay: Elastase cleavage activity (specificity); assay type: biochemical; details: 50 mM DIF1
Method: as §1
The cleavage activity of elastase was determined in 0.1 M Tris-HCl pH 7.0 buffer containing 20 μg/ml enzyme and its synthetic substrate. N-succinyl-Ala-Ala-Ala-p-nitroanilide.

cathepsin B = cathepsin B (Homo sapiens, UniProt P07858); assay: Cathepsin B cleavage activity (specificity); assay type: biochemical; details: all DIF1 concentrations tested
Method: as §1, §3

## COc1cc(O)c(Cl)c(O)c1C(C)=O [Compound 25]
[1]; Rhinovirus B, 48 h, H1-HeLa cells, HRV 14, 2 days at 34° C, Table 1, Formula IV, read-out: ICE50
  IC50: 11 µM
[2]
  Ki: 3000 ± 1500 µM
other
  melting point: 187.5 to 189 °C
H1-HeLa cells; human
  TD50: 22 µM

## O=C(CCc1ccc(O)cc1)c1c(O)cc(O)cc1O [Formula VIII, Z′=OH, Y′=H, R3=OH, Y=H, phloretin]
H1-HeLa cells
  TD50: 160

## COCCC(O)CC(O)C(=O)c1ccccc1 (stereo not drawn) [Compound 108, 2,4-dihydroxy-6-methoxyhexanophenone]
other
  melting point: 109 °C

## CCCCCC(=O)c1c(O)c(Cl)c(O)c(Cl)c1OC [Compound 16, 1-(3,5-dichloro-2,4-dihydroxy-6-methoxyphenyl)-hexan-1-one]
[1]; Rhinovirus B, H1-HeLa cells, HRV 14, Table 2, Formula V, read-out: IC50
  IC50: 3 µM
[2]
  Ki: 390 ± 30 µM
H1-HeLa cells
  TD50: 40

## COc1cc(O)cc(O)c1C(C)=O [Compound 23, 2,4-dihydroxy-6-methoxy acetophenone]
H1-HeLa cells; Table 1, Formula IV
  TD50: 220 µM

## CCCCCC(=O)c1c(O)c(Cl)c(OC)c(Cl)c1O [Compound 15, 1-(3,5-dichloro-2,6-dihydroxy-4-methoxyphenyl)-hexan-1-one]
[1]; Rhinovirus B, H1-HeLa
  IC50: 7.5 µM
papain
  effect on proteolytic activity of papain: not to effect
[2]
  Ki: 460 ± 80 µM
HRV 3C protease; HRV 3C protease, N-acetylated 10-mer peptide substrate, 35° C.
  Ki: 220 µM
HRV 3C protease; in the presence of 270 μM DIF1
  rate of substrate cleavage: decreased significantly
chymotripsin
  effect on proteolytic activity of chymotripsin: not to effect
Ficin A
  effect on proteolytic activity of ficin A: not to effect
H1-HeLa cells
  TD50: 30
elastase
  inhibition of cleavage activity of elastase: did not inhibit
Cathepsin B
  effect on proteolytic activity of cathepsin B: not to effect

## CC(=O)c1c(O)c(Cl)cc(Cl)c1O [Compound 109]
[1]; H1-HeLa cells, HRV 14, 2 days at 34° C, Table 1, Formula IV, read-out: ICE50
  IC50: 1250 µM
H1-HeLa cells
  TD50: 5000 µM

## COC(CCO)CC(O)C(=O)c1ccccc1 (stereo not drawn) [Compound 107, 2,6-dihydroxy-4-methoxyhexanophenone]
other
  melting point: 121 °C

## COc1ccc(C(=O)c2ccccc2O)c(O)c1 [Compound 1, Dioxybenzone, reference compound]
[2]
  Ki: 4700 ± 900 µM

## CCCCCC(=O)c1c(O)c(Cl)c(O)c(Cl)c1O [Compound 20]
[2]
  Ki: 460 ± 60 µM
H1-HeLa cells
  TD50: 1875

## O=C1C=CC(=O)c2c(O)cccc21 [Compound 3, Juglone, reference compound]
[2]
  Ki: 630 ± 70 µM
